Reference: PMC6409085, “Three odorant-binding proteins are involved in the behavioral response of Sogatella furcifera to rice plant volatiles” (PeerJ, 2019)
“And” between values parts separate entries of the source, which are not always exact repeats. Identical values can stand only once.

Experiments:
Test in all cases: biochemical
Format in all cases: binding
[1] = target: SfurOBP1 (Sogatella furcifera, UniProt V5T8N5); details: OBP1, three replicate columns
Method: (§1) Thirty-six rice odorants ([He et al., 2014]; [Wang et al., 2017]) and 1-N-phenyl-naphthylamine (1-NPN) were purchased from Sigma-Aldrich (St Louis, MO, USA). These odorants and 1-NPN were dissolved in high-performance liquid chromatography (HPLC) purify grade methanol for 1.0 mM as work solution.
(§2) Fluorescence competitive binding assays were performed on Tecan Spark 10M (Tecan Group Ltd., Männedorf, Switzerland) with the F96 Black ELIAS Plate (Sangon) ([Khuhro et al., 2017]; [Liu et al., 2017]). The solutions were excited at 337 nm and emission spectra were recorded between 390 and 490 nm. First, to test the binding constants of 1-NPN to the SfurOBPs, a 2.0 µM solution of protein in 50 mM Tris-HCl (pH = 7.4) was titrated with 1 mM 1-NPN to achieve virous concentrations. Next, the competitive binding of each odorant was measured using the 1-NPN as fluorescent reporter and odorant as competitor. The concentrations of protein and 1-NPN were both 2.0 µM, the odorant added after protein and 1-NPN added into the well of ELIAS Plate for 2 min. The final concentrations of each competitor were 2, 4, 6, 8, 10, 12, 14, 16, 18 and 20 µM. After 2 min of odorant added, the fluorescence intensity was measured and recorded. The volume of mixed solution in each well was maintained at 250 µL. Each interaction was performed in triplicates.
(§3) GraphPad Prism 7.0 software (GraphPad Software, Inc., La Jolla, CA, USA) was used to calculated and generated the binding constants (K1−NPN) of 1-NPN to SfurOBPs and relative Scatchard plots ([Ban et al., 2003]; [Li et al., 2016]). Dissociation constant (Ki) of each odorant to SfurOBP was computed from the corresponding IC50 value (the half maximal inhibitory concentration), using the following equation: Ki=[IC50]/(1 + [1-NPN]/K1−NPN), where [1-NPN] is the free concentration of 1-NPN and K1−NPN is the dissociation constant of the complex protein/1-NPN.

[2] = target: SfurOBP11 (Sogatella furcifera, UniProt V5T6E3)
Method: as §1, §2, §3

[3] = target: SfurOBP2 (Sogatella furcifera, UniProt V5T759)
Method: as §1, §2, §3

[4] = target: SfurOBP3 (Sogatella furcifera, UniProt V5T818); details: OBP3, three replicate columns
Method: as §1, §2, §3

Sequence of SfurOBP11 (V5T6E3 entry or part of it): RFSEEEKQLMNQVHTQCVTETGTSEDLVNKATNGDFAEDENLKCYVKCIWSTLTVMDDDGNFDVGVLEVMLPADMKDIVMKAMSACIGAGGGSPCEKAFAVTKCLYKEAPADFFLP
Sequence of SfurOBP2 (V5T759 entry or part of it): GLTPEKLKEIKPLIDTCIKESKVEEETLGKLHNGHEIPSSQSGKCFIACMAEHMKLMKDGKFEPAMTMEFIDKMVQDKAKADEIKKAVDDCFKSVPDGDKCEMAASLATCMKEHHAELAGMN
Sequence of SfurOBP3 (V5T818 entry or part of it): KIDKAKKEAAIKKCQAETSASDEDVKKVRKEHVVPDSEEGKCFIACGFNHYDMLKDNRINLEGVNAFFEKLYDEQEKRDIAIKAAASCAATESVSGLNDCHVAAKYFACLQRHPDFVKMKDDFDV
Sequence of SfurOBP1 (V5T8N5 entry or part of it): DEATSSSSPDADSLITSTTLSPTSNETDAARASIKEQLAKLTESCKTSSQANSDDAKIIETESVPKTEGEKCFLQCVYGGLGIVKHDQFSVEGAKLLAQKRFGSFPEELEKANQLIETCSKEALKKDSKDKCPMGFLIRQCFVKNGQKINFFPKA

SMILES: CC(C)COC(=O)CCCCC(=O)OCC(C)C [DA(diisobutyl adipate)]
- Fluorescence competitive binding assay, fluorescence intensity ([1]; ligand concentration 2 (μM)): 6756 and 5373 and 6005
- Fluorescence competitive binding assay, fluorescence intensity ([1]; ligand concentration 4 (μM)): 6244 and 6492 and 6739
- Fluorescence competitive binding assay, fluorescence intensity ([1]; ligand concentration 6 (μM)): 6349 and 5828 and 6089
- Fluorescence competitive binding assay, fluorescence intensity ([1]; ligand concentration 8 (μM)): 6071 and 5880 and 6063
- Fluorescence competitive binding assay, fluorescence intensity ([1]; ligand concentration 10 (μM)): 6080 and 6185 and 6121
- Fluorescence competitive binding assay, fluorescence intensity ([1]; ligand concentration 12 (μM)): 5959 and 5941 and 5922
- Fluorescence competitive binding assay, fluorescence intensity ([1]; ligand concentration 14 (μM)): 6211 and 5589 and 5885
- Fluorescence competitive binding assay, fluorescence intensity ([1]; ligand concentration 16 (μM)): 6060 and 6168 and 5508
- Fluorescence competitive binding assay, fluorescence intensity ([1]; ligand concentration 18 (μM)): 6493 and 6572 and 6293
- Fluorescence competitive binding assay, fluorescence intensity ([1]; ligand concentration 20 (μM)): 7139 and 6435 and 6856
- Fluorescence intensity, fluorescence competitive binding assay, OBP11 ([2]; ligand concentration 2, replicate 1): 28052
- Fluorescence intensity, fluorescence competitive binding assay, OBP11 ([2]; ligand concentration 2, replicate 2): 24884
- Fluorescence intensity, fluorescence competitive binding assay, OBP11 ([2]; ligand concentration 2, replicate 3): 25998
- Fluorescence intensity, fluorescence competitive binding assay, OBP11 ([2]; ligand concentration 4, replicate 1): 25234
- Fluorescence intensity, fluorescence competitive binding assay, OBP11 ([2]; ligand concentration 4, replicate 2): 27203
- Fluorescence intensity, fluorescence competitive binding assay, OBP11 ([2]; ligand concentration 4, replicate 3): 25942
- Fluorescence intensity, fluorescence competitive binding assay, OBP11 ([2]; ligand concentration 6, replicate 1): 26005
- Fluorescence intensity, fluorescence competitive binding assay, OBP11 ([2]; ligand concentration 6, replicate 2): 24895
- Fluorescence intensity, fluorescence competitive binding assay, OBP11 ([2]; ligand concentration 6, replicate 3): 23079
- Fluorescence intensity, fluorescence competitive binding assay, OBP11 ([2]; ligand concentration 8, replicate 1): 23239
- Fluorescence intensity, fluorescence competitive binding assay, OBP11 ([2]; ligand concentration 8, replicate 2): 23328
- Fluorescence intensity, fluorescence competitive binding assay, OBP11 ([2]; ligand concentration 8, replicate 3): 24337
- Fluorescence intensity, fluorescence competitive binding assay, OBP11 ([2]; ligand concentration 10, replicate 1): 23466
- Fluorescence intensity, fluorescence competitive binding assay, OBP11 ([2]; ligand concentration 10, replicate 2): 24012
- Fluorescence intensity, fluorescence competitive binding assay, OBP11 ([2]; ligand concentration 10, replicate 3): 22919
- Fluorescence intensity, fluorescence competitive binding assay, OBP11 ([2]; ligand concentration 12, replicate 1): 20499
- Fluorescence intensity, fluorescence competitive binding assay, OBP11 ([2]; ligand concentration 12, replicate 2): 21796
- Fluorescence intensity, fluorescence competitive binding assay, OBP11 ([2]; ligand concentration 12, replicate 3): 19860
- Fluorescence intensity, fluorescence competitive binding assay, OBP11 ([2]; ligand concentration 14, replicate 1): 20110
- Fluorescence intensity, fluorescence competitive binding assay, OBP11 ([2]; ligand concentration 14, replicate 2): 20124
- Fluorescence intensity, fluorescence competitive binding assay, OBP11 ([2]; ligand concentration 14, replicate 3): 20151
- Fluorescence intensity, fluorescence competitive binding assay, OBP11 ([2]; ligand concentration 16, replicate 1): 18498
- Fluorescence intensity, fluorescence competitive binding assay, OBP11 ([2]; ligand concentration 16, replicate 2): 20828
- Fluorescence intensity, fluorescence competitive binding assay, OBP11 ([2]; ligand concentration 16, replicate 3): 20812
- Fluorescence intensity, fluorescence competitive binding assay, OBP11 ([2]; ligand concentration 18, replicate 1): 20721
- Fluorescence intensity, fluorescence competitive binding assay, OBP11 ([2]; ligand concentration 18, replicate 2): 21669
- Fluorescence intensity, fluorescence competitive binding assay, OBP11 ([2]; ligand concentration 18, replicate 3): 21849
- Fluorescence intensity, fluorescence competitive binding assay, OBP11 ([2]; ligand concentration 20, replicate 1): 20792
- Fluorescence intensity, fluorescence competitive binding assay, OBP11 ([2]; ligand concentration 20, replicate 2): 21117
- Fluorescence intensity, fluorescence competitive binding assay, OBP11 ([2]; ligand concentration 20, replicate 3): 20999
- Fluorescence competitive binding assay, OBP2 (raw fluorescence reading) ([3]; ligand concentration 2 (unit not given), replicate column 1 of 3): 18255
- Fluorescence competitive binding assay, OBP2 (raw fluorescence reading) ([3]; ligand concentration 2 (unit not given), replicate column 2 of 3): 18056
- Fluorescence competitive binding assay, OBP2 (raw fluorescence reading) ([3]; ligand concentration 2 (unit not given), replicate column 3 of 3): 17857
- Fluorescence competitive binding assay, OBP2 (raw fluorescence reading) ([3]; ligand concentration 4 (unit not given), replicate column 1 of 3): 17231
- Fluorescence competitive binding assay, OBP2 (raw fluorescence reading) ([3]; ligand concentration 4 (unit not given), replicate column 2 of 3): 17998
- Fluorescence competitive binding assay, OBP2 (raw fluorescence reading) ([3]; ligand concentration 4 (unit not given), replicate column 3 of 3): 18274
- Fluorescence competitive binding assay, OBP2 (raw fluorescence reading) ([3]; ligand concentration 6 (unit not given), replicate column 1 of 3): 16096
- Fluorescence competitive binding assay, OBP2 (raw fluorescence reading) ([3]; ligand concentration 6 (unit not given), replicate column 2 of 3): 17472
- Fluorescence competitive binding assay, OBP2 (raw fluorescence reading) ([3]; ligand concentration 6 (unit not given), replicate column 3 of 3): 18707
- Fluorescence competitive binding assay, OBP2 (raw fluorescence reading) ([3]; ligand concentration 8 (unit not given), replicate column 1 of 3): 16149
- Fluorescence competitive binding assay, OBP2 (raw fluorescence reading) ([3]; ligand concentration 8 (unit not given), replicate column 2 of 3): 16678
- Fluorescence competitive binding assay, OBP2 (raw fluorescence reading) ([3]; ligand concentration 8 (unit not given), replicate column 3 of 3): 16908
- Fluorescence competitive binding assay, OBP2 (raw fluorescence reading) ([3]; ligand concentration 10 (unit not given), replicate column 1 of 3): 15320
- Fluorescence competitive binding assay, OBP2 (raw fluorescence reading) ([3]; ligand concentration 10 (unit not given), replicate column 2 of 3): 15081
- Fluorescence competitive binding assay, OBP2 (raw fluorescence reading) ([3]; ligand concentration 10 (unit not given), replicate column 3 of 3): 16366
- Fluorescence competitive binding assay, OBP2 (raw fluorescence reading) ([3]; ligand concentration 12 (unit not given), replicate column 1 of 3): 14706
- Fluorescence competitive binding assay, OBP2 (raw fluorescence reading) ([3]; ligand concentration 12 (unit not given), replicate column 2 of 3): 15645
- Fluorescence competitive binding assay, OBP2 (raw fluorescence reading) ([3]; ligand concentration 12 (unit not given), replicate column 3 of 3): 15214
- Fluorescence competitive binding assay, OBP2 (raw fluorescence reading) ([3]; ligand concentration 14 (unit not given), replicate column 1 of 3): 14108
- Fluorescence competitive binding assay, OBP2 (raw fluorescence reading) ([3]; ligand concentration 14 (unit not given), replicate column 2 of 3): 14696
- Fluorescence competitive binding assay, OBP2 (raw fluorescence reading) ([3]; ligand concentration 14 (unit not given), replicate column 3 of 3): 15283
- Fluorescence competitive binding assay, OBP2 (raw fluorescence reading) ([3]; ligand concentration 16 (unit not given), replicate column 1 of 3): 14285
- Fluorescence competitive binding assay, OBP2 (raw fluorescence reading) ([3]; ligand concentration 16 (unit not given), replicate column 2 of 3): 14484
- Fluorescence competitive binding assay, OBP2 (raw fluorescence reading) ([3]; ligand concentration 16 (unit not given), replicate column 3 of 3): 14085
- Fluorescence competitive binding assay, OBP2 (raw fluorescence reading) ([3]; ligand concentration 18 (unit not given), replicate column 1 of 3): 14063
- Fluorescence competitive binding assay, OBP2 (raw fluorescence reading) ([3]; ligand concentration 18 (unit not given), replicate column 2 of 3): 14665
- Fluorescence competitive binding assay, OBP2 (raw fluorescence reading) ([3]; ligand concentration 18 (unit not given), replicate column 3 of 3): 14360
- Fluorescence competitive binding assay, OBP2 (raw fluorescence reading) ([3]; ligand concentration 20 (unit not given), replicate column 1 of 3): 13793
- Fluorescence competitive binding assay, OBP2 (raw fluorescence reading) ([3]; ligand concentration 20 (unit not given), replicate column 2 of 3): 14314
- Fluorescence competitive binding assay, OBP2 (raw fluorescence reading) ([3]; ligand concentration 20 (unit not given), replicate column 3 of 3): 13272
- Fluorescence competitive binding assay, fluorescence intensity ([4]; ligand concentration 2): 60413 and 65968 and 63200
- Fluorescence competitive binding assay, fluorescence intensity ([4]; ligand concentration 4): 61250 and 61185 and 61320
- Fluorescence competitive binding assay, fluorescence intensity ([4]; ligand concentration 6): 60246 and 58949 and 59593
- Fluorescence competitive binding assay, fluorescence intensity ([4]; ligand concentration 8): 52502 and 56703 and 49181
- Fluorescence competitive binding assay, fluorescence intensity ([4]; ligand concentration 10): 59611 and 55127 and 57362
- Fluorescence competitive binding assay, fluorescence intensity ([4]; ligand concentration 12): 47975 and 49504 and 49931
- Fluorescence competitive binding assay, fluorescence intensity ([4]; ligand concentration 14): 42590 and 46739 and 44665
- Fluorescence competitive binding assay, fluorescence intensity ([4]; ligand concentration 16): 36927 and 42551 and 39754
- Fluorescence competitive binding assay, fluorescence intensity ([4]; ligand concentration 18): 35693 and 43209 and 41553
- Fluorescence competitive binding assay, fluorescence intensity ([4]; ligand concentration 20): 42100 and 41400 and 42823
